Experimental data published in patent US20060035844A1, “Preventive or remedy for diseases caused by hyperglycemia” (priority 2002, published 2006).

Key:
male Zucker fa/fa rats = experiment: Effects after mixed-carbohydrate loading with or without sucrose (plasma glucose AUC 0-3 h); type: in vivo, rat; settings: Zucker fatty fa/fa rats, oral; Example 1 0.5 mg/kg, Example 2 0.3 mg/kg, acarbose 5 mg/kg, miglitol 5 mg/kg, phlorizin 100 mg/kg; 1.6 g glucose/kg load
Text: Next, in order to investigate whether effects caused by fructose ingestion are present, the present inventors have performed the following test using Zucker fatty fa/fa rats, model animals of type-2 diabetes. […] In the fructose-containing diet group, mixed carbohydrate (starch: sucrose: lactose=6:3:1), which corresponds approximately to carbohydrates in regular diets, was loaded. (e.g., see the following Reference 35). On the other hand, in the fructose-free diet group, mixed carbohydrate substituted the corresponding amount of starch for the amount of glucose contained within sucrose, was loaded, because sucrose is a disaccharide and is digested to glucose and fructose in the gastrointestinal tract. Then, comparison study of each diet was performed.
The FIG. 1 is a graph showing hypoglycemic effects of each drug caused by fructose ingestion.
Effects of SGLT1 Inhibitors, an SGLT Inhibitor and α-glucosidase Inhibitors After Mixed-Carbohydrate Containing Sucrose Loading
Immediately after the compound administration, mixed-carbohydrate with sucrose (starch:sucrose:lactose=6:3:1) or without sucrose (starch:lactose=7.5:1) was loaded at a dose of 1.6 g glucose/kg. The blood was collected immediately before and after the administration with the time course (0, 0.5, 1, 2, 3 hours). The plasma was collected to quantify the plasma glucose concentration. The area under the curve of plasma glucose concentration from 0 to 3 hours was calculated by the trapezoidal method. Statistical analysis was T test between existence and nonexistence of sucrose in mixed-carbohydrate solution on each compound.

rat SGLT1 = target: T1, rat SGLT1 (Rattus norvegicus, UniProt P53790); experiment: Assay for inhibitory effects on rat SGLT1 activity (uptake of methyl-α-D-glucopyranoside in CrS1 cells); type: cell-based; settings: CHO-K1 cells stably expressing rat SGLT1 (CrS1), 1 mM α-MG, 37° C., 1 hour; read-out: IC50 value, inhibition of uptake of methyl-α-D-glucopyranoside
T1 construct: expressed in transfected cells
T1 sequence (P53790 1-665): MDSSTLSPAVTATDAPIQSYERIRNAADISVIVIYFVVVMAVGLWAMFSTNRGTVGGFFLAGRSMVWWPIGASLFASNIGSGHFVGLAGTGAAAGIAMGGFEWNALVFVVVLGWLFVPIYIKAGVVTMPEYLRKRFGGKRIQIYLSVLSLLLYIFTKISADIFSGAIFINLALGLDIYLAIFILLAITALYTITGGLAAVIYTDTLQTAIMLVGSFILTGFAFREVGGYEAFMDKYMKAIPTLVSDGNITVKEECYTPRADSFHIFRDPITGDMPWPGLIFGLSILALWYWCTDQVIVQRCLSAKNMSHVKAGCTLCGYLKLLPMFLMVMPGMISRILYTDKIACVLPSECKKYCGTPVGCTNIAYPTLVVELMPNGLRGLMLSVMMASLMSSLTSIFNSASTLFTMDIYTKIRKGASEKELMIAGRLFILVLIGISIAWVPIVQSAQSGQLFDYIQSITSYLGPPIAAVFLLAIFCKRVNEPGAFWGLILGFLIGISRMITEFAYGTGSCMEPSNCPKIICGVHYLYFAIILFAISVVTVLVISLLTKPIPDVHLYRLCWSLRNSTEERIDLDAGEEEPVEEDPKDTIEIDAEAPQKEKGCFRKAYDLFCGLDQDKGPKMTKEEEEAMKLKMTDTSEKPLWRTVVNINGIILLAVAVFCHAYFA
Experimental: A test compound was dissolved in dimethyl sulfoxide, and then appropriately diluted with distilled water. The test compound solution was added to the uptake buffer containing 1 mM α-MG, and designated as a measurement buffer. For the control group, the measurement buffer without any test compound was prepared. […] After repeating the same treatment, the pre-treatment buffer was removed. To each well was added 75 μL of the measurement buffer or the basal uptake buffer was added and incubated at 37° C. for 1 hour. After removing the measurement buffer, cells were washed twice with 180 μL per well of the washing buffer (the basal uptake buffer containing 10 mM non-labeled α-MG). The cells were solubilized by 75 μL per well of 0.2 mol/L sodium hydroxide. The cell lysates were transferred into PicoPlates (Packard), and then added 150 μL of MicroScint-40 (Packard) and mixed. Radioactivity was measured by means of micro-scintillation counter TopCount (Packard).

male Wistar rats = experiment: Effects of an SGLT1 inhibitor on absorption of fructose (fructose tolerance test, residual fructose in the gastrointestinal tract); type: in vivo, rat
Experimental: Effects of an SGLT1 Inhibitor on Absorption of Fructose
Immediately after the administration, 0.2 g/kg of fructose was loaded. After 30 minutes, rats were sacrificed with exsanguination under ether anesthesia and then the contents of stomach and small intestine were collected with 10 mL ice-cold saline. Fructose concentration was measured by fructose assay kit (D-glucose/D-Fructose; Roche diagnostics) and calculated residual fructose (% of dose) in the gastrointestinal tract. Statistical analysis between control and treated groups are calculated using T test.

| IC50 (rat SGLT1) [µM] | SMILES | Reduction of plasma glucose concentration after sucrose-containing diet compared with sucrose-free diet (in words) (male Zucker fa/fa rats) | Residual fructose (% of dose) in the gastrointestinal tract (male Wistar rats; 0.3 mg/kg oral, 0.2 g/kg fructose load, after 30 minutes, stomach and small intestine contents, control 11.8 ± 2.1) [%] | Inhibitory effect on absorbing fructose (in words) (male Wistar rats; fructose tolerance test, residual fructose in the gastrointestinal tract) |
| --- | --- | --- | --- | --- |
|  | O=C(CCc1ccc(O)cc1)c1c(O)cc(O)cc1O[C@@H]1O[C@H](CO)[C@@H](O)[C@H](O)[C@H]1O [Phlorizin, reference compound] | did not reduce plasma glucose concentration |  |  |
|  | OCCN1C[C@H](O)[C@@H](O)[C@H](O)[C@H]1CO [miglitol, reference compound] | did not reduce plasma glucose concentration |  |  |
| 0.139 | Cc1cc(O)cc(O[C@@H]2O[C@H](CO)[C@@H](O)[C@H](O)[C@H]2O)c1Cc1ccc(NC(=O)NCc2cccnc2)cc1 [Example 1, 5-Hydroxy-3-methyl-2-{4-[3-(3-pyridylmethyl)ureido]benzyl}-phenyl β-D-glucopyranoside] | significantly reduced plasma glucose concentration |  |  |
| 0.0381 | Cc1cc(OCCNC(=N)N)ccc1Cc1c(O[C@@H]2O[C@H](CO)[C@@H](O)[C@H](O)[C@H]2O)n[nH]c1C(C)C [Example 2, 3-(β-D-Glucopyranosyloxy)-4-{[4-(2-guanidinoethoxy)-2-methylphenyl]methyl}-5-isopropyl-1H-pyrazole] | significantly reduced plasma glucose concentration | 12.2 ± 2.6 | substantially show no inhibitory effect on absorbing fructose |
